#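 Interpolation was linear, between the two tested concentrations surrounding the appropriate level; five concentrations were tested over 48 hours in 96-well plates. GI50 = concentration required for 50% inhibition of growth.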 Activity calls are given as the source filed them. Cut-off read from the data, not from the text of the source: active = GI50 up to about 1.1 µM and inactive = higher.
# Legend:
# Assay in all cases: NCI tumour cell line growth inhibition, 48 h
# BT-549 = system: BT-549
# CCRF-CEM = system: CCRF-CEM
# NCI-H226 = system: NCI-H226
# U-251 = system: U-251
# SF-268 = system: SF-268
# A498 = system: A498
# NCI-H460 = system: NCI-H460
# SK-MEL-5 = system: SK-MEL-5
# MDA-MB-231 = system: MDA-MB-231
# A549 = system: A549
# ACHN = system: ACHN
# HT-29 = system: HT-29
# SN12C = system: SN12C
# MDA-N = system: MDA-N
# PC-3 = system: PC-3
# HOP-92 = system: HOP-92
# KM12 = system: KM12
# M14 = system: M14
# UACC-62 = system: UACC-62
# SR = system: SR
SMILES,GI50 (BT-549),GI50 (CCRF-CEM),GI50 (NCI-H226),GI50 (U-251),GI50 (SF-268),GI50 (A498),GI50 (NCI-H460),GI50 (SK-MEL-5),GI50 (MDA-MB-231),GI50 (A549),GI50 (ACHN),GI50 (HT-29),GI50 (SN12C),GI50 (MDA-N),GI50 (PC-3),GI50 (HOP-92),GI50 (KM12),GI50 (M14),GI50 (UACC-62),GI50 (SR)
C/C=C/[C@@H]1O[C@H](CC#C[Si](C)(C)C)[C@@]2(C=O)C(C)=CC[C@H](C(C)C)[C@@H]12,22.4 µM (inactive),2.41 µM (inactive),20.3 µM (inactive),17.3 µM (inactive),23.8 µM (inactive),29.6 µM (inactive),17.1 µM (inactive),17.6 µM (inactive),17.3 µM (inactive),23.1 µM (inactive),19.2 µM (inactive),19.5 µM (inactive),17.7 µM (inactive),19.4 µM (inactive),15.4 µM (inactive),17.4 µM (inactive),17.7 µM (inactive),18.5 µM (inactive),15.8 µM (inactive),2.44 µM (inactive)
CCN(CC)Cc1cc(/N=N\c2c(O)ccc3c(/N=N\c4ccc(O)c(CN(CC)CC)c4)c(O)ccc23)ccc1O,4.92 µM (inactive),2.44 µM (inactive),4.54 µM (inactive),3.48 µM (inactive),4.56 µM (inactive),13.3 µM (inactive),1.91 µM (inactive),2.47 µM (inactive),2.05 µM (inactive),2.42 µM (inactive),2.49 µM (inactive),2.57 µM (inactive),3.92 µM (inactive),4.8 µM (inactive),5.11 µM (inactive),4.58 µM (inactive),1.18 µM (inactive),5.4 µM (inactive),4.41 µM (inactive),0.993 µM (active)
O=C(CN1CCN(C(=O)OCc2ccccc2)CCN(CC(=O)N2CCCCC2)CCN(C(=O)OCc2ccccc2)CC1)N1CCCCC1,23.1 µM (inactive),6.44 µM (inactive),5.82 µM (inactive),16.5 µM (inactive),15.8 µM (inactive),16.7 µM (inactive),12.4 µM (inactive),6.87 µM (inactive),14.2 µM (inactive),20.8 µM (inactive),18.1 µM (inactive),7.46 µM (inactive),11.6 µM (inactive),14.8 µM (inactive),12.6 µM (inactive),12.9 µM (inactive),17.7 µM (inactive),10.1 µM (inactive),18.1 µM (inactive),3.3 µM (inactive)
O=C1CSC(c2ccccc2O)N1c1ccc(-n2c(-c3ccccc3)nc3ccccc3c2=O)cc1 (stereo not given),21.6 µM (inactive),14.7 µM (inactive),25 µM (inactive),5.7 µM (inactive),50.1 µM (inactive),29.7 µM (inactive),14.8 µM (inactive),16.1 µM (inactive),4.76 µM (inactive),38.4 µM (inactive),19.7 µM (inactive),27.1 µM (inactive),30.3 µM (inactive),28.2 µM (inactive),12.9 µM (inactive),20.8 µM (inactive),20.9 µM (inactive),33.7 µM (inactive),21.5 µM (inactive),21.4 µM (inactive)
Cc1cccc2c(NCCCN(C)C)c3c([N+](=O)[O-])ccc(C)c3nc12,0.256 µM (active),0.423 µM (active),0.194 µM (active),0.147 µM (active),0.198 µM (active),< 0.01 µM (active),< 0.0241 µM (active),0.082 µM (active),0.217 µM (active),0.101 µM (active),0.0908 µM (active),0.0809 µM (active),0.221 µM (active),0.196 µM (active),0.0494 µM (active),0.0916 µM (active),0.103 µM (active),0.132 µM (active),0.144 µM (active),< 0.0154 µM (active)
Cc1cccc(CP(Cc2cccc(C)c2)CC2(Cp3c4ccccc4c4ccccc43)COC2)c1,3.96 µM (inactive),0.406 µM (active),4.11 µM (inactive),0.47 µM (active),3.79 µM (inactive),7.41 µM (inactive),1.63 µM (inactive),2.55 µM (inactive),1.3 µM (inactive),0.206 µM (active),4.71 µM (inactive),0.485 µM (active),4.41 µM (inactive),6.32 µM (inactive),0.935 µM (active),1.99 µM (inactive),2.51 µM (inactive),3.97 µM (inactive),11.7 µM (inactive),1.15 µM (inactive)
CCOC1CN(C)/C(=N\c2cccc3ccccc23)S1 (stereo not given),> 10 µM (inactive),> 10 µM (inactive),> 10 µM (inactive),> 10 µM (inactive),> 10 µM (inactive),> 10 µM (inactive),> 10 µM (inactive),> 10 µM (inactive),> 10 µM (inactive),> 10 µM (inactive),> 10 µM (inactive),> 10 µM (inactive),> 10 µM (inactive),> 10 µM (inactive),> 10 µM (inactive),> 10 µM (inactive),> 10 µM (inactive),> 10 µM (inactive),> 10 µM (inactive),> 10 µM (inactive)
O=C(CSc1nc2ccccc2c(=O)n1-c1ccccc1)N/N=C1\C(=O)Nc2ccc(Br)cc21,10.3 µM (inactive),5.62 µM (inactive),12.1 µM (inactive),1.82 µM (inactive),5.48 µM (inactive),6.21 µM (inactive),4.92 µM (inactive),2.58 µM (inactive),1.65 µM (inactive),2.3 µM (inactive),4.57 µM (inactive),1.69 µM (inactive),1.71 µM (inactive),3.01 µM (inactive),1.84 µM (inactive),2.7 µM (inactive),2.44 µM (inactive),2.4 µM (inactive),4.44 µM (inactive),15.6 µM (inactive)
NC(=O)c1cc2ccccc2o/c1=N/c1ccccc1,> 100 µM (inactive),> 100 µM (inactive),> 100 µM (inactive),> 100 µM (inactive),> 100 µM (inactive),> 100 µM (inactive),> 100 µM (inactive),> 100 µM (inactive),> 100 µM (inactive),> 100 µM (inactive),> 100 µM (inactive),> 100 µM (inactive),> 100 µM (inactive),> 100 µM (inactive),> 100 µM (inactive),> 100 µM (inactive),> 100 µM (inactive),> 100 µM (inactive),> 100 µM (inactive),> 100 µM (inactive)
COc1cc(C2S/C(=C/c3ccccc3)C(=O)N2c2cc(Cl)c(Cl)cc2Cl)cc(OC)c1OC (stereo not given),23.7 µM (inactive),21.5 µM (inactive),20.6 µM (inactive),44.4 µM (inactive),29.6 µM (inactive),44.8 µM (inactive),31.5 µM (inactive),22.5 µM (inactive),> 66.8 µM (inactive),35.6 µM (inactive),35.6 µM (inactive),46.2 µM (inactive),> 59.8 µM (inactive),50.5 µM (inactive),26.8 µM (inactive),13.7 µM (inactive),25.7 µM (inactive),37.5 µM (inactive),27.5 µM (inactive),25.3 µM (inactive)
NC(=O)NC(=O)CCC(NS(=O)(=O)c1ccccc1)C(=O)NC(N)=O (stereo not given),> 100 µM (inactive),> 100 µM (inactive),> 100 µM (inactive),> 100 µM (inactive),> 100 µM (inactive),> 100 µM (inactive),> 100 µM (inactive),> 100 µM (inactive),> 100 µM (inactive),> 100 µM (inactive),> 100 µM (inactive),> 100 µM (inactive),> 100 µM (inactive),> 100 µM (inactive),> 100 µM (inactive),> 100 µM (inactive),> 100 µM (inactive),> 100 µM (inactive),> 100 µM (inactive),> 100 µM (inactive)
Cc1ccc(NC(=O)c2cccc(OP(=O)(O)Nc3ccc(C)cc3)c2)cc1,> 100 µM (inactive),> 100 µM (inactive),> 100 µM (inactive),> 100 µM (inactive),> 100 µM (inactive),> 100 µM (inactive),> 100 µM (inactive),> 100 µM (inactive),74.1 µM (inactive),71.8 µM (inactive),57.4 µM (inactive),> 100 µM (inactive),> 100 µM (inactive),63.5 µM (inactive),> 100 µM (inactive),37.2 µM (inactive),> 100 µM (inactive),33.3 µM (inactive),> 100 µM (inactive),32.4 µM (inactive)
Nc1ccc2c(c1)Nc1c3ccccc3nc3cccc-2c13,3.6 µM (inactive),3.85 µM (inactive),1.62 µM (inactive),1.53 µM (inactive),1.73 µM (inactive),1.79 µM (inactive),1.02 µM (active),1.75 µM (inactive),1.35 µM (inactive),1.36 µM (inactive),1.43 µM (inactive),1.18 µM (inactive),1.29 µM (inactive),1.42 µM (inactive),1.54 µM (inactive),1.6 µM (inactive),1.32 µM (inactive),2.12 µM (inactive),1.82 µM (inactive),0.281 µM (active)
